Results published in US20240216336A1, “CLOTRIMAZOLE AS A TREATMENT FOR IMMUNODEFICIENCY DISORDERS” (Northwestern University, priority 2020, published 2024).
Each block holds one compound with its values, some of them ahead of it.

Experiments:
BMDMs [1] = experiment: Inflammatory cytokine mRNA expression (quantitative RT-PCR) in BMDMs; format: cell-based, mouse
Experimental: (§1) BMDMs were isolated from ΔE1HK1 and WT mice as previously reported (Rodriguez et al., 2019). Briefly, bone marrow was isolated from the tibia and femur of 8-10-week-old mice by puncturing one end of the femur and tibia with a 27g needle and placing it in a 0.5 ml tube with a hole punched in the bottom. The 0.5 ml tube containing the bone was then placed in a 1.75 ml tube and centrifuged at 5,000×g for 3.5 minutes. Bone marrow was then collected into the 1.75 ml tube and resuspend in 1 ml of RBC lysis buffer (abcam) for 1 minute and then transferred to a 50 ml tube with 4 ml RBC lysis buffer and incubated for 4 minutes. Next, 35 ml of PBS was added and centrifuged at 300×g for 5 min and supernatant was then decanted and cell pellet was re-suspended in complete RPMI with 20 ng/ml mCSF (Preprotech). Cells were counted using a hemocytometer and plated in 10 cm tissue culture plates at a density of 3-million cells/plate. Cells were cultured with 20 ng/mL mCSF to induce differentiation into BMDMs. Media was changed every 2 days and BMDMs were harvested by scraping on day 6 and plated in 12 well plates at a density of 1-million cells/well for mRNA extraction experiments. BMDMs were stimulated in the same manner as peritoneal macrophages (LPS dose for BMDMs was 200 ng/ml).
(§2) RNA was isolated from cells or tissues using RNA-STAT60 (Teltest) followed by chloroform extraction and precipitation. Reverse transcription was carried out using qScript cDNA Synthesis Kit (Quanta Bio). The resulting cDNA was amplified quantitatively using PerfeCTa SYBR Green Mix (Quanta Bio) on a 7500 Fast Real-time PCR System (Applied Biosystems). The relative gene expression was determined using differences in Ct values between gene of interest and house-keeping control genes. Complete list of primers can be found in Key Reagents Table (Table 1).

GAPDH [2] = experiment: GAPDH IP and TMT switch S-nitrosylation western blot in BMDMs; format: cell-based, mouse; conditions: LPS (200 ng/ml) treated BMDMs ±1400W
Experimental: GAPDH immunoprecipitation of HepG2 and BMDM cells was performed and nitrosylated cysteines were replaced with covalent binding of TMT using Pierce S-Nitrosylation western blot kit according to manufactures protocol. Briefly, free cysteines were blocked with MMTS reagent, lysates were treated with iodoTMT/ascorbate to induce replacement of unstable S-NO with stable S-TMT moiety. Western blot was then run on the TMT-replaced lysates and probed with GAPDH (dilution 1:8,000) and anti-TMT (dilution 1:1000).

ΔE1HK1 mice = experiment: In vivo LPS i.p. injection with 1400W: splenic mRNA and serum ELISA of inflammatory cytokines; parameters: species or system mouse; conditions: LPS (15 mg/kg) i.p. + 1400W (10 mg/kg) i.p.
Experimental: as §2
LPS induced sepsis model in mice was approved by Northwestern University Institutional Animal Care and Use Committee. For short term LPS induced cytokine quantification, C57/B16 mice (aged 10-12 weeks) were treated i.p. with or without 1400W (10 mg/kg) for 2 hrs prior to i.p. treatment with ultrapure 05:B55 LPS from Invivogen (15 mg/kg) i.p. for 4 hours. Whole blood samples were harvested via cardiac puncture after mice were euthanized. Cytokine production in serum from whole blood was measured using the Mouse IL-1β (DY401), IL-6 (DY406), and TNFα (DY410) ELISAs from R&D. For survival studies, Crude 05:B55 LPS (Sigma) was administrated i.p. at a sub-lethal dose of 15 mg/kg and mice were monitored over 72 hrs, every 2-4 hrs for survival and signs of deterioration to determine humane endpoints (Shrum et al., 2014).

BMDMs [3] = experiment: Seahorse ECAR trace of BMDMs; format: cell-based, mouse; conditions: 5 hrs LPS (200 ng/ml) ±1400W (50 μM)
Experimental: The day before the assay, the Seahorse cartridge was placed in the XF calibrant and incubated overnight at 37° C. On the day of the assay, cells were seeded into the Seahorse 96-well plate at 15,000 cells/80 μl per well for HepG2 cells or 100,000 cells/80 μl per well for BMDMs. The plates were incubated at RT for 1 hour in glucose free complete DMEM or RPMI without bicarbonate or phenol-red to allow even distribution of cells across the well floor. Before placing the sample plates in the Seahorse XF96 Analyzer, medium volume was adjusted to 175 μl in each well. 11 mM or 25 mM glucose for HepG2 cells or BMDMs respectively, Oligomycin at 2 μM, CCCP at 10 μM, and 2DG at […] each, diluted in DMEM, were injected sequentially into each well including control wells, containing only medium, following the standard Seahorse protocol. For acute injection of LPS, the first port of the drug cartridge was replaced with LPS at 200 ng/ml.

GAPDH [4] = experiment: GAPDH activity normalized to total protein in PMs from NC and HFD mice; format: cell-based, mouse; conditions: LPS (300 ng/ml) + 1400W (50 μM) for 4 hrs
Experimental: Peritoneal macrophages were isolated from 8-10-week-old ΔE1HK1 and littermate control WT mice by peritoneal lavage as described previously (Ray and Dittel, 2010). Briefly, mice were euthanized and the peritoneal cavity was injected with PBS supplemented with 5% FBS using a 27g needle. The abdominal wall was gently agitated to dislodge peritoneal cells. Using a fresh 25g needle, the peritoneal lavage (PBS and peritoneal cells) was aspirated and collected. Cells were then centrifuged at 500 g for 10 min and re-suspended in 1 mL of complete RPMI (Corning) supplemented with 10% FBS (Atlanta Biologicals), 2 mM glutamine (HyClone), 1 mM HEPES (Corning) and 1 mM pyruvate (Corning). Stimulation with LPS (Invivogen) was performed the next day. 300 ng/ml of LPS was given to the cells for 4-6 hrs with or without the following drugs; OT (50 μM), 6-AN (1 mM), 1400W (50 μM), or CGP3466 (50 nM).
(§3) The following kits were used according to the manufacturer's instructions: Promega NADP/NADPH quantification kit (G9081) and […] (G9071); Glyceraldehyde-3-Phosphate Dehydrogenase Activity Assay kit (abcam); ELISAs for IL-1β (DY401), IL-6 […].

PMs = experiment: IL-1β ELISA from media of PMs from NC and HFD mice; format: cell-based, mouse; conditions: LPS (300 ng/ml) 6 hrs and ATP (2.5 mM) 30 min, 1400W
GAPDH [5] = molecular target: T1, GAPDH (Mus musculus, UniProt P16858); experiment: GAPDH activity normalized to total protein in BMDMs; format: cell-based; parameters: endogenous in cells
Experimental: as §1, with “Media was changed every 2 days and BMDMs were harvested by scraping on day 6 and plated in 12 well plates at a density of 1-million cells/well for mRNA extraction experiments. BMDMs were stimulated in the same manner as peritoneal macrophages (LPS dose for BMDMs was 200 ng/ml).” left out
as §3

RAW264.7 cells = experiment: Inflammatory cytokine mRNA expression (quantitative RT-PCR) in RAW264.7 cells; format: cell-based, mouse; conditions: ±LPS (200 ng/ml) and ±CGP3466 for 4 hrs
Experimental: (§4) RAW264.7 cells were a gift from Jason A. Wertheim MD, PhD. HepG2 and HEK293T cells were obtained from ATCC. RAW264.7, HEK293T, and HepG2 cells were cultured in Dulbecco's Modified Eagle's Medium (DMEM) (Corning) supplemented with 10% FBS (Atlanta Biologicals), 2 mM glutamine (HyClone), and 1 mM sodium pyruvate (Corning). […]
as §2

GAPDH [6] = molecular target: T1, GAPDH; experiment: GAPDH activity normalized to total protein in RAW264.7 cells; format: cell-based; parameters: endogenous in cells; host or cells: RAW264.7; conditions: LPS (200 ng/ml) ±CGP3466
Experimental: as §4, §3

BMDMs from ΔE1HK1 mice = experiment: IL-1β ELISA from BMDM media; format: cell-based, mouse; conditions: 4 hrs LPS (200 ng/ml) ± 6AN (1 mM) or OT (50 μM), then 30 min ATP (2.5 mM)
Experimental: as §1, with “Cells were cultured with 20 ng/mL mCSF to induce differentiation into BMDMs. Media was changed every 2 days and BMDMs were harvested by scraping on day 6 and plated in 12 well plates at a density of 1-million cells/well for mRNA extraction experiments. BMDMs were stimulated in the same manner as peritoneal macrophages (LPS dose for BMDMs was 200 ng/ml).” left out
[…] Cell supernatant was collected and analyzed by ELISA according to manufacturer's instructions for IL-1β (DY401), IL-6 (DY406), and TNFα (DY410).
as §3

[7] = 4 hrs LPS (200 ng/ml) + 1400W (50 μM)
[8] = 4 hr 6AN (1 mM) or OT (50 μM), ±LPS (200 ng/ml)
[9] = 16 hrs IFNγ priming, then 4 hrs LPS (200 ng/ml) ± 6AN (1 mM) or OT (50 μM)

T1 sequence (P16858 whole entry): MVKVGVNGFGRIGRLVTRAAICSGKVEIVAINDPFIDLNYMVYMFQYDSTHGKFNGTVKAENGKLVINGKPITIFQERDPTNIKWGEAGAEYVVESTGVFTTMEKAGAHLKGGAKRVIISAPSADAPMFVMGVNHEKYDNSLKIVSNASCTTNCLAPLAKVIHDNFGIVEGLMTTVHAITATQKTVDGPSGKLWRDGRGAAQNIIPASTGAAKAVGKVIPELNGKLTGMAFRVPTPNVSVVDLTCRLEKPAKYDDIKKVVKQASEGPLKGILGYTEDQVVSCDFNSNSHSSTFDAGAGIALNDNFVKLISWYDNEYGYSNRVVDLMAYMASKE

GAPDH activity of ΔE1HK1 BMDMs (GAPDH [5]; LPS (200 ng/ml) + 1400W (50 μM)): restored to WT levels
Compound: CC(N)=NCc1cccc(CN)c1.Cl.Cl [1400W]
hyper-inflammatory response of ΔE1HK1 BMDMs, IL-1β mRNA (BMDMs [1]; [7]): reversal
hyper-inflammatory response of ΔE1HK1 BMDMs, IL-6 mRNA (BMDMs [1]; [7]): reversal
hyper-inflammatory response of ΔE1HK1 BMDMs, TNFα mRNA (BMDMs [1]; [7]): reversal
higher GAPDH nitrosylation in BMDMs from ΔE1HK1 mice (GAPDH [2]): reversible
hyper-inflammatory response in ΔE1HK1 mice, serum ELISA IL-1β (ΔE1HK1 mice): rescue
hyper-inflammatory response in ΔE1HK1 mice, serum ELISA IL-6 (ΔE1HK1 mice): rescue
hyper-inflammatory response in ΔE1HK1 mice, serum ELISA TNFα (ΔE1HK1 mice): rescue
hyper-inflammatory response in ΔE1HK1 mice, splenic IL-1β mRNA (ΔE1HK1 mice): rescue
hyper-inflammatory response in ΔE1HK1 mice, splenic IL-6 mRNA (ΔE1HK1 mice): rescue
hyper-inflammatory response in ΔE1HK1 mice, splenic TNFα mRNA (ΔE1HK1 mice): rescue
differences in ECAR between ΔE1HK1 and WT BMDMs (BMDMs [3]): eliminated the differences
lower GAPDH activity in PMs of HFD mice (GAPDH [4]): rescued
elevation in IL-1β in HFD PMs (ELISA) (PMs): reversed

difference in GAPDH activity of BMDMs between WT and ΔE1HK1 mice (GAPDH [5]; ±CGP3466 for 4 hrs): abolished
GAPDH activity in RAW264.7 cells (GAPDH [6]): decreased
Compound: C#CCN(C)CC1=Cc2ccccc2Oc2ccccc21.O=C(O)/C=C\C(=O)O [CGP3466, CGP 3466 maleate (CAS 200189-97-5)]
IL-1β mRNA expression in WT BMDMs (BMDMs [1]; ±LPS and ±CGP3466 for 4 hrs, compared with ΔE1HK1 BMDMs): increased IL-1β mRNA expression in WT BMDMs to the level of the hyper-inflamed ΔE1HK1 BMDMs
increase in IL-1β mRNA with LPS in RAW264.7 cells (RAW264.7 cells): amplified

Compound: NC(=O)c1ccc(N)nc1 [6AN, 6-aminonicotinamide]
IL-1β protein release (ELISA), higher release in ΔE1HK1 BMDMs (BMDMs from ΔE1HK1 mice): reversed
increase in IL-1β mRNA levels in BMDMs of ΔE1HK1 mice (BMDMs [1]; [8]): abolished
increase in IL-6 mRNA levels in BMDMs of ΔE1HK1 mice (BMDMs [1]; [8]): abolished
increase in IL-1β mRNA levels in IFN-γ primed BMDMs of ΔE1HK1 mice (BMDMs [1]; [9]): rescued
increase in IL-6 mRNA levels in IFN-γ primed BMDMs of ΔE1HK1 mice (BMDMs [1]; [9]): rescued
